Structures can show the parent of a compound that is named as a salt. Where two headings read alike, the source gives them in different places.
Biological target: IRAK4 (Homo sapiens (Human), UniProt Q9NWZ3)
Experiment: Screening the compounds against IRAK4 with ATP (Caliper, FAM-labeled peptide)
Format: biochemical
Settings: for IC50: read-out: IC50 (nM) (10 μM ATP); for activity, times better than that of the positive control compound CA4948: IRAK4 kinase inhibition relative to CA4948
Experimental: Prepare Ix kinase base buffer and stop buffer for testing kinases: (1) base buffer: 50 mM HEPES (pH 7.5), 0.0015% Brij-35; (2) stop buffer: 100 mM HEPES (pH 7.5), 0.015% Brij-35, 0.2% Coating Reagent #3, 50 mM EDTA. Then prepare compounds for testing: Dilute the compound to 50× of the final desired highest inhibitor concentration in reaction by 100% DMSO. Transfer 100 μL of this compound dilution to a well in a 96-well plate (source plate).
Serially dilute the compounds by 3-fold for a total of 10 points. Transfer 10 μL of the compound from the source plate to a new 96-well plate (intermediate plate) and add 90 μL of Ix kinase buffer. Shake the mixture on the intermediate plate for 10 min. Transfer 5 μL of each well from the 96-well intermediate plate to a 384-well plate in duplicates. Add 10 μL of 2.5× enzyme solution to each well of the 384-well assay plate and incubate at room temperature for 10 min. Add 10 μL, of 2.5×FAM-labeled peptide and ATP solution and incubate at 28° C. for a period of time. Finally stop the reaction by adding 30 μL of stop buffer and collect data on Caliper to obtain the IC50.

Sequence of IRAK4 (Q9NWZ3 whole entry): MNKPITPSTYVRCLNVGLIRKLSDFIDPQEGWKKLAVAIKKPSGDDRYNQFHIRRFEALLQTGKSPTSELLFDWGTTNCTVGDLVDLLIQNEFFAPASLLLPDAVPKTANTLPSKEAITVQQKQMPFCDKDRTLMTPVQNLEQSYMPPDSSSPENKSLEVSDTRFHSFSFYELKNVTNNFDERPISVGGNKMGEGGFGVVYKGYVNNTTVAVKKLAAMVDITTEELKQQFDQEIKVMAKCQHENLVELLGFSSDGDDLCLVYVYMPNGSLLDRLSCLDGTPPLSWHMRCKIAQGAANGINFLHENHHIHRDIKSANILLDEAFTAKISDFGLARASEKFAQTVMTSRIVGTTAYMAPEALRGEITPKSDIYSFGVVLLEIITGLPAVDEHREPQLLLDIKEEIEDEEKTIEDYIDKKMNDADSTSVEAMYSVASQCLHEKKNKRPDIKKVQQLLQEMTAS

Molecule `CN1CCN(c2nc3nc(N4CCOCC4)oc3cc2C(=O)Nc2cccc(-c3cnn(C)c3)n2)CC1` [Compound A3, N-(6-(1-methyl-1H-pyrazol-4-yl)pyridin-2-yl)-5-(4-methylpiperazin-1-yl)-2-morpholinooxazolo[4,5-b]pyridine-6-carboxamide] has an IC50 (IRAK4 kinase, 10 μM ATP) of 43 nM.

`Cn1cc(-c2cccc(NC(=O)c3cc4oc(N5CCOCC5)nc4nc3N3CC[C@H](O)C3)n2)cn1` [Compound A6, (S)-5-(3-hydroxypyrrolidin-1-yl)-N-(6-(1-methyl-1H-pyrazol-4-yl)pyridin-2-yl)-2-morpholinooxazolo[4,5-b]pyridine-6-carboxamide] showed an IC50 (IRAK4 kinase, 10 μM ATP) of 194 nM.

`Cn1cc(-c2cccc(NC(=O)c3cc4oc(N5CCOCC5)nc4nc3N3CC(O)(C4CC4)C3)n2)cn1` [Compound A10, 5-(3-Cyclopropyl-3-hydroxyazetidin-1-yl)-N-(6-(1-methyl-1H-pyrazol-4-yl)pyridin-2-yl)-2-morpholinooxazolo[4,5-b]pyridine-6-carboxamide] gave an IC50 (IRAK4 kinase, 10 μM ATP) of 122 nM.

With `Cn1cc(-c2cccc(NC(=O)c3cc4oc(N5CCOCC5)nc4nc3N3CCC(F)(F)CC3)n2)cn1` [Compound A11, 5-(4,4-Difluoropiperidin-1-yl)-N-(6-(1-methyl-1H-pyrazol-4-yl)pyridin-2-yl)-2-morpholinooxazolo[4,5-b]pyridine-6-carboxamide] the “activity, times better than that of the positive control compound CA4948” value (“activity, times better than that” for short) was “more than 5 times” and the IC50 (IRAK4 kinase, 10 μM ATP) was 22 nM.

For `Cn1cc(-c2cccc(NC(=O)c3cc4oc(N5CCOCC5)nc4nc3N3CCC(F)(F)C3)n2)cn1` [Compound A12, 5-(3,3-Difluoropyrrolidin-1-yl)-N-(6-(1-methyl-1H-pyrazol-4-yl)pyridin-2-yl)-2-morpholinooxazolo[4,5-b]pyridine-6-carboxamide], the IC50 (IRAK4 kinase, 10 μM ATP) was 33 nM.

In the case of `Cn1cc(-c2cccc(NC(=O)c3cc4oc(N5CCOCC5)nc4nc3N3CCNCC3)n2)cn1` [Compound A13, N-(6-(1-Methyl-1H-pyrazol-4-yl)pyridin-2-yl)-2-morpholino-5-(piperazin-1-yl)oxazolo[4,5-b]pyridine-6-carboxamide], the IC50 (IRAK4 kinase, 10 μM ATP) is reported as 304 nM.

In the case of `Cn1cc(-c2cccc(NC(=O)c3cc4oc(N5CCOCC5)nc4nc3N3CC(C)(O)C3)n2)cn1` [Compound A14, 5-(3-Hydroxy-3-methylazetidin-1-yl)-N-(6-(1-methyl-1H-pyrazol-4-yl)pyridin-2-yl)-2-morpholinooxazolo[4,5-b]pyridine-6-carboxamide], the IC50 (IRAK4 kinase, 10 μM ATP) is reported as 164 nM.

Molecule `Cn1cc(-c2cccc(NC(=O)c3cc4oc(N5CCOCC5)nc4nc3N3CC4(C3)CC(F)(F)C4)n2)cn1` [Compound A15, 5-(6,6-Difluoro-2-azaspiro[3.3]heptan-2-yl)-N-(6-(1-methyl-1H-pyrazol-4-yl)pyridin-2-yl)-2-morpholinooxazolo[4,5-b]pyridine-6-carboxamide] has an IC50 (IRAK4 kinase, 10 μM ATP) of 244 nM.

Molecule `Cn1cc(-c2cccc(NC(=O)c3cc4oc(N5CCOCC5)nc4nc3N3CCCC(O)C3)n2)cn1` (stereo not shown) [Compound A16, 5-(3-Hydroxypiperidin-1-yl)-N-(6-(1-methyl-1H-pyrazol-4-yl)pyridin-2-yl)-2-morpholinooxazolo[4,5-b]pyridine-6-carboxamide] has an IC50 (IRAK4 kinase, 10 μM ATP) of 31 nM.

With `Cn1cc(-c2cccc(NC(=O)c3cc4oc(N5CCOCC5)nc4nc3N3CC4(CCOC4)C3)n2)cn1` [Compound A18, N-(6-(1-Methyl-1H-pyrazol-4-yl)pyridin-2-yl)-2-morpholino-5-(6-oxa-2-azaspiro[3.4]octan-2-yl)oxazolo[4,5-b]pyridine-6-carboxamide] the IC50 (IRAK4 kinase, 10 μM ATP) was 221 nM.

`Cn1cc(-c2cccc(NC(=O)c3cc4oc(N5CCOCC5)nc4nc3N3CCN4CCC[C@@H]4C3)n2)cn1` [Compound A21, (R)-5-(Hexahydropyrrolo[1,2-a]pyrazin-2(1H)-yl)-N-(6-(1-methyl-1H-pyrazol-4-yl)pyridin-2-yl)-2-morpholinooxazolo[4,5-b]pyridine-6-carboxamide] showed an IC50 (IRAK4 kinase, 10 μM ATP) of 26 nM.

`Cn1cc(-c2cccc(NC(=O)c3cc4oc(N5CCOCC5)nc4nc3N3CC4(CC(O)C4)C3)n2)cn1` [Compound A22, 5-(6-Hydroxy-2-azaspiro[3.3]heptan-2-yl)-N-(6-(1-methyl-1H-pyrazol-4-yl)pyridin-2-yl)-2-morpholinooxazolo[4,5-b]pyridine-6-carboxamide] gave an IC50 (IRAK4 kinase, 10 μM ATP) of 188 nM.

Work on `CN(C)C1CCN(c2nc3nc(N4CCOCC4)oc3cc2C(=O)Nc2cccc(-c3cnn(C)c3)n2)CC1` [Compound A23, 5-(4-(Dimethylamino)piperidin-1-yl)-N-(6-(1-methyl-1H-pyrazol-4-yl)pyridin-2-yl)-2-morpholinooxazolo[4,5-b]pyridine-6-carboxamide] yielded an IC50 (IRAK4 kinase, 10 μM ATP) of 425 nM.

`Cn1cc(-c2cccc(NC(=O)c3cc4oc(N5CCOCC5)nc4nc3N3CCC(C)(O)CC3)n2)cn1` [Compound A25, 5-(4-Hydroxy-4-methylpiperidin-1-yl)-N-(6-(1-methyl-1H-pyrazol-4-yl)pyridin-2-yl)-2-morpholinooxazolo[4,5-b]pyridine-6-carboxamide] was tested, and the “activity, times better than that” value was “more than 10 times” and the IC50 (IRAK4 kinase, 10 μM ATP) was 8.6 nM.

For `Cn1cc(-c2cccc(NC(=O)c3cc4oc(N5CCOCC5)nc4nc3N3CCC4(CCO4)CC3)n2)cn1` [Compound A26, N-(6-(1-Methyl-1H-pyrazol-4-yl)pyridin-2-yl)-2-morpholino-5-(1-oxa-7-azaspiro[3.5]nonan-7-yl)oxazolo[4,5-b]pyridine-6-carboxamide], the “activity, times better than that” value was “more than 25 times” and the IC50 was 4.2 nM.

`Cn1cc(-c2cccc(NC(=O)c3cc4oc(N5CCOCC5)nc4nc3N3CCN4CCC[C@H]4C3)n2)cn1` [Compound A27, (S)-5-(Hexahydropyrrolo[1,2-a]pyrazin-2(1H)-yl)-N-(6-(1-methyl-1H-pyrazol-4-yl)pyridin-2-yl)-2-morpholinooxazolo[4,5-b]pyridine-6-carboxamide] was tested, and the IC50 (IRAK4 kinase, 10 μM ATP) was 81 nM.

Molecule `Cn1cc(-c2cccc(NC(=O)c3cc4oc(N5CCOCC5)nc4nc3N3C4CCC3CC(O)C4)n2)cn1` (stereo not shown) [Compound A28, 5-(3-Hydroxy-8-azabicyclo[3.2.1]octan-8-yl)-N-(6-(1-methyl-1H-pyrazol-4-yl)pyridin-2-yl)-2-morpholinooxazolo[4,5-b]pyridine-6-carboxamide] has an IC50 (IRAK4 kinase, 10 μM ATP) of 80 nM.

In the case of `CC1CN(c2nc3nc(N4CCOCC4)oc3cc2C(=O)Nc2cccc(-c3cnn(C)c3)n2)CCN1C` (stereo not shown) [Compound A30, 5-(3,4-Dimethylpiperazin-1-yl)-N-(6-(1-methyl-1H-pyrazol-4-yl)pyridin-2-yl)-2-morpholinooxazolo[4,5-b]pyridine-6-carboxamide Hydrochloride], the IC50 (IRAK4 kinase, 10 μM ATP) is reported as 125 nM.

In the case of `COCCN1CCN(c2nc3nc(N4CCOCC4)oc3cc2C(=O)Nc2cccc(-c3cnn(C)c3)n2)CC1` [Compound A34, 5-(4-(2-Methoxyethyl)piperazin-1-yl)-N-(6-(1-methyl-1H-pyrazol-4-yl)pyridin-2-yl)-2-morpholinooxazolo[4,5-b]pyridine-6-carboxamide Hydrochloride], the IC50 (IRAK4 kinase, 10 μM ATP) is reported as 40 nM.

With `Cl.Cn1cc(-c2cccc(NC(=O)c3cc4oc(N5CCOCC5)nc4nc3N3CCN(C4CC4)CC3)n2)cn1` [Compound A35, 5-(4-Cyclopropylpiperazin-1-yl)-N-(6-(1-methyl-1H-pyrazol-4-yl)pyridin-2-yl)-2-morpholinooxazolo[4,5-b]pyridine-6-carboxamide Hydrochloride] the “activity, times better than that” value was “more than 10 times” and the IC50 (IRAK4 kinase, 10 μM ATP) was 8.9 nM.

With `Cl.Cn1cc(-c2cccc(NC(=O)c3cc4oc(N5CCOCC5)nc4nc3N3CCN(CCO)CC3)n2)cn1` [Compound A36, 5-(4-(2-Hydroxyethyl)piperazin-1-yl)-N-(6-(1-methyl-1H-pyrazol-4-yl)pyridin-2-yl)-2-morpholinooxazolo[4,5-b]pyridine-6-carboxamide Hydrochloride] the “activity, times better than that” value was “more than 5 times” and the IC50 (IRAK4 kinase, 10 μM ATP) was 17 nM.

Work on `CN1CCN(c2nc3nc(N4CCOCC4)oc3cc2C(=O)Nc2cccc(-c3cnn(C)c3)n2)CC1CO` (stereo not shown) [Compound A37, 5-(3-(Hydroxymethyl)-4-methylpiperazin-1-yl)-N-(6-(1-methyl-1H-pyrazol-4-yl)pyridin-2-yl)-2-morpholinooxazolo[4,5-b]pyridine-6-carboxamide Hydrochloride] yielded an IC50 (IRAK4 kinase, 10 μM ATP) of 462 nM.

`N#Cc1cccc(NC(=O)c2cc3oc(N4CCOCC4)nc3nc2N2CCC(O)CC2)n1` [Compound A42, N-(6-Cyanopyridin-2-yl)-5-(4-hydroxypiperidin-1-yl)-2-morpholinooxazolo[4,5-b]pyridine-6-carboxamide] gave an IC50 (IRAK4 kinase, 10 μM ATP) of 87 nM.

For `COc1cccc(NC(=O)c2cc3oc(N4CCOCC4)nc3nc2N2CCC(O)CC2)n1` [Compound A43, 5-(4-Hydroxypiperidin-1-yl)-N-(6-methoxypyridin-2-yl)-2-morpholinooxazolo[4,5-b]pyridine-6-carboxamide], the IC50 (IRAK4 kinase, 10 μM ATP) was 137 nM.

`COc1ncccc1NC(=O)c1cc2oc(N3CCOCC3)nc2nc1N1CCC(O)CC1` [Compound A45, 5-(4-Hydroxypiperidin-1-yl)-N-(2-methoxypyridin-3-yl)-2-morpholinooxazolo[4,5-b]pyridine-6-carboxamide] gave an IC50 (IRAK4 kinase, 10 μM ATP) of 131 nM.

For `COc1cccc(NC(=O)c2cc3oc(N4CCOCC4)nc3nc2N2CCC(OC)CC2)n1` [Compound A46, 5-(4-Methoxypiperidin-1-yl)-N-(6-methoxypyridin-2-yl)-2-morpholinooxazolo[4,5-b]pyridine-6-carboxamide], the IC50 (IRAK4 kinase, 10 μM ATP) was 179 nM.
